This is an account of results in patent US9809623B2, “α4β7 peptide monomer and dimer antagonists” (Protagonist Therapeutics, Inc., priority 2014, dated 2017).

As a reminder, the IC50 is the concentration at which inhibition is half-maximal.

Numbered stars: 1 amine (or outer) side, 2 acyl side, 3 side chain; on linkers, the order of the positions; unused ones are H or OH. Bridge positions count the residues as written; N and C are the ends. Square brackets hold non-standard residues; d marks the D form. Peptide text beside a SMILES is read from it. I, II: the chains in the order shown. Bip = N[C@@H](Cc1ccc(-c2ccccc2)cc1)C(=O)O; 1Nal = N[C@@H](Cc1cccc2ccccc12)C(=O)O; 2Nal = N[C@@H](Cc1ccc2ccccc2c1)C(=O)O; Diglycolyl = O=C(COCC(=O)[*:2])[*:1]; NMeR = CN[C@@H](CCCNC(=N)N)C(=O)O; β3hE = N[C@@H](CCC(=O)O)CC(=O)O; NMeK = CN[C@@H](CCCCN)C(=O)O; Pen = CC(C)(S)[C@H](N)C(=O)O; dNMeK = CN[C@H](CCCCN)C(=O)O

One data set has as its target T1, α4β1 (Homo sapiens, UniProt P05556+P13612, DEL729-798).
T1 construct: purchased R&D Systems 5668-A4
The experiment in a line: α4β1-VCAM Competition ELISA. It is filed as binding. Conditions: Table 3-B, Selectivity (α4β1); range classes; read-out: α4β1 ELISA IC50. Here is the method: A Nunc MaxiSorp plate was coated with rh VCAM-1/CD106 Fc chimera (R&D #862-VC) at 400 ng/well in 50 ul per well in 1×PBS and incubated overnight at 4° C. The solution was removed by shaking and then blocked with 250 ul of 1% BSA in 1×PBS per well. The wells were then incubated at room temperature for 1 hr with shaking. Each well was then washed once with wash buffer (50 mM Tris-HCl pH7.6, 100 mM NaCL, 1 mM MnCl2 or MgCl2, 0.05% Tween-20). 25 ul of serial dilutions of peptides starting at 200 μM in assay buffer (Assay buffer: 50 mM Tris-HCl pH7.6, 100 mM NaCl, 1 mM MnCl2 or MgCl2, 0.05% Tween-20) was added to each well. Additionally, 25 ul of α4β1 (R&D Systems #5668-A4) was added to each well at a fixed concentration of 120 nM. The final peptide and α4β1 concentrations were 100 μM and 60 nM, respectively. The plates were then incubated at 37° C. for 2 hr. The solution was then removed by shaking, and each well was washed three times with wash buffer. 50 ul of 9F10 antibody at 4 ug/ml (purified mouse anti-human CD49d, BD Bioscience Cat#555502) was then added to each well, and the plate was incubated at room temperature for 1 hr with shaking. The solution was again removed by shaking, and each well was washed three times with wash buffer. 50 ul of peroxidase-conjugated AffiniPure Goat anti-mouse IgG (Jackson immune research cat #115-035-003) diluted in 1:5000 in assay buffer was added to each well. The plate was incubated at room temperature for 30 min with shaking. Each well was then washed 3 times with wash buffer. 100 ul of TMB was then added to each well and closely observe during developing time. The reaction was stepped with 2N H2SO4 and absorbance was read at 450 nm.
Background: ELISA stands for enzyme-linked immunosorbent assay.

For another data set, the target named is T2, rh integrin α4β7 (Homo sapiens, UniProt P13612+P26010).
T2 construct: purchased R&D Systems 5397-A30
Nature of the data set: α4β7-MAdCAM Competition ELISA. The format is binding. Conditions: Table 3-B, Potency (α4β7); range classes; read-out: α4β7 ELISA IC50. The method, boiled down:
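Recombinant human α4β7 was captured on nickel plates at 800 ng/well. Peptide in 3-fold serial dilution (final top 10 μM) competed with MAdCAM-1 (final 10 nM) for 1 h at room temperature in 50 mM Tris pH 7.6, 150 mM NaCl, 1 mM MnCl2 or MgCl2. Bound MAdCAM-1 was detected with anti-human IgG1-HRP/TMB at A450.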

The nature of data set [1]: Simulated Intestinal Fluid (SIF) Stability Assay. The format is in vitro ADME, porcine. The note with it: pig, simulated intestinal fluid (SIF) with 1% porcine pancreatin, pH 6.5, Table 3-B; > means experiment was stopped at that time and half life was not reached; read-out: Stabilty SIF t1/2. Summed up: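 Peptides (22 μM final) incubated at 37 °C in FASSIF (pH 6.5) with 1% porcine pancreatin; aliquots quenched at various times and analyzed by LC-MS/MS against internal standard. Half-life from first-order exponential decay fit of percent remaining.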

The next data set deals with α4β7 (Homo sapiens, UniProt P13612+P26010). Nature of the data set: α4β7-MAdCAM Cell Adhesion Assay (RPMI 8866 human cells). The note with it: Table 3-B, Potency (α4β7); range classes; read-out: α4β7 cell (Hu) IC50. The format is cell-based. Details: host or cells: RPMI 8866 human B lymphoblastoid cells. The method, boiled down:
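Washed RPMI 8866 cells (200,000/well) in DMEM with 0.1% BSA, 10 mM HEPES pH 7, 1 mM MnCl2 adhered to rh MAdCAM-1/Fc-coated wells with serially diluted peptides, 30-45 min at 37 °C. After three washes, bound cells quantified by MTT, A570, cell-free background subtracted for dose response.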

T1 sequence (P13612 34-977 limits assumed, stated change not applied): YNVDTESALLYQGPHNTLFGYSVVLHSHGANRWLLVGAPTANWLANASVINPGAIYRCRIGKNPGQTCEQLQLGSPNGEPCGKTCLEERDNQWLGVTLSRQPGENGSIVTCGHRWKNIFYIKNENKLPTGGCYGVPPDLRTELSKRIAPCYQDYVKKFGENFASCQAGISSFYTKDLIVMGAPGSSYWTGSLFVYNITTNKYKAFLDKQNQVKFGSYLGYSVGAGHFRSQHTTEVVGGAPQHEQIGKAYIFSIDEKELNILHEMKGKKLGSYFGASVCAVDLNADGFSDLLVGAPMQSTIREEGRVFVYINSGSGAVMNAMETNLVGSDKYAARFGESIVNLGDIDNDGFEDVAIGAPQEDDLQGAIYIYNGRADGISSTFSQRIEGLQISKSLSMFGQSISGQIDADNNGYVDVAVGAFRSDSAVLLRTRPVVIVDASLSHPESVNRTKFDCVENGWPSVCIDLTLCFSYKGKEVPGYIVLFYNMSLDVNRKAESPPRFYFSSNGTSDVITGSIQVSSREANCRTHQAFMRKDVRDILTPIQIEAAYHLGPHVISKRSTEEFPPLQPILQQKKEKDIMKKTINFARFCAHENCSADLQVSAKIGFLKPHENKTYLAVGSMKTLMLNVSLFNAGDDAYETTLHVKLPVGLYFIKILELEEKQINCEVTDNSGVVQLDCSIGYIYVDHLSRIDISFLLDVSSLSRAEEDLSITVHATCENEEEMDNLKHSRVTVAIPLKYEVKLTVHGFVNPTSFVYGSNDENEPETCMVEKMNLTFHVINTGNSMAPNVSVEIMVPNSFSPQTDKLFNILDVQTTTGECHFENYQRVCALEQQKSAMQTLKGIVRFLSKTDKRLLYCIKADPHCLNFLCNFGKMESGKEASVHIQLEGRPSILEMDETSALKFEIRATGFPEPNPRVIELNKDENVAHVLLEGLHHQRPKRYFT
T1 sequence (P05556 21-728 limits assumed, stated change not applied): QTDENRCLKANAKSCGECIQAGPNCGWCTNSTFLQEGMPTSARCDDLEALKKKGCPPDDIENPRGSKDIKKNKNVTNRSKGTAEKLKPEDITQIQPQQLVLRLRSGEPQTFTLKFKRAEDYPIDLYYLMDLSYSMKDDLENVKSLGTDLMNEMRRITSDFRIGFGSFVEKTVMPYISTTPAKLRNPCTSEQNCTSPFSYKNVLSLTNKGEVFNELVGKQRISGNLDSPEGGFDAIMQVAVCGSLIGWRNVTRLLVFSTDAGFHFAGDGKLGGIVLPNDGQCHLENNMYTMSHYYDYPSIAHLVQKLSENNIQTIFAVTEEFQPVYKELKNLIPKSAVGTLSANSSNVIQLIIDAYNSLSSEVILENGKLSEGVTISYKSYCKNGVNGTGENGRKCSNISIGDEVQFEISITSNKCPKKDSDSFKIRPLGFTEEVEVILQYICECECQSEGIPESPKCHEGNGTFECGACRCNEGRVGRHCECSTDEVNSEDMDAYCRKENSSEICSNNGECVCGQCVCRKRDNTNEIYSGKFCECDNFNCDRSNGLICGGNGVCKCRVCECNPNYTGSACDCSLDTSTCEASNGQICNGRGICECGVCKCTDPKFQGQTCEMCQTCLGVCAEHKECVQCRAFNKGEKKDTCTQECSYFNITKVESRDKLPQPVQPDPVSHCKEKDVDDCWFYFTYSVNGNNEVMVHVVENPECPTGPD
T2 sequence (P13612 34-977 limits assumed): as the sequence (P13612 34-977 limits assumed, stated change not applied) above
T2 sequence (P26010 20-723 limits assumed): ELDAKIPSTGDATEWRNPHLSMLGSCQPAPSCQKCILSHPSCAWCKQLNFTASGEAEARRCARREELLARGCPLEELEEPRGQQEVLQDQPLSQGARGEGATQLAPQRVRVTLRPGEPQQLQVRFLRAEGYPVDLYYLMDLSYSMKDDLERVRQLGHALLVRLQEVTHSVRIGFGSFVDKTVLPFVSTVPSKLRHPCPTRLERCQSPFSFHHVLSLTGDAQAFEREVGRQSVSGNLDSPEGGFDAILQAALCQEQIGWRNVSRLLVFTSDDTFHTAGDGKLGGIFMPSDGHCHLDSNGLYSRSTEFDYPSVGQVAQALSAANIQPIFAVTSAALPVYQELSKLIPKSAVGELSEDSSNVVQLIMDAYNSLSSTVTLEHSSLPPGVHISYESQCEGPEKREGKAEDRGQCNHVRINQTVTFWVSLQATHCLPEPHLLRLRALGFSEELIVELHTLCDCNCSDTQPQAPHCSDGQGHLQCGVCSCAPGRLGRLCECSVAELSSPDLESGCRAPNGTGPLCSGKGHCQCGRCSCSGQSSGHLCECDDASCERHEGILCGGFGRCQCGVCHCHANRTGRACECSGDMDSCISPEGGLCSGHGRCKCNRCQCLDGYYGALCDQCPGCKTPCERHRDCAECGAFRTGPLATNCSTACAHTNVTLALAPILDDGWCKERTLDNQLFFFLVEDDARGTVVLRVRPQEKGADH
Sequence of α4β7 (P13612 34-1032): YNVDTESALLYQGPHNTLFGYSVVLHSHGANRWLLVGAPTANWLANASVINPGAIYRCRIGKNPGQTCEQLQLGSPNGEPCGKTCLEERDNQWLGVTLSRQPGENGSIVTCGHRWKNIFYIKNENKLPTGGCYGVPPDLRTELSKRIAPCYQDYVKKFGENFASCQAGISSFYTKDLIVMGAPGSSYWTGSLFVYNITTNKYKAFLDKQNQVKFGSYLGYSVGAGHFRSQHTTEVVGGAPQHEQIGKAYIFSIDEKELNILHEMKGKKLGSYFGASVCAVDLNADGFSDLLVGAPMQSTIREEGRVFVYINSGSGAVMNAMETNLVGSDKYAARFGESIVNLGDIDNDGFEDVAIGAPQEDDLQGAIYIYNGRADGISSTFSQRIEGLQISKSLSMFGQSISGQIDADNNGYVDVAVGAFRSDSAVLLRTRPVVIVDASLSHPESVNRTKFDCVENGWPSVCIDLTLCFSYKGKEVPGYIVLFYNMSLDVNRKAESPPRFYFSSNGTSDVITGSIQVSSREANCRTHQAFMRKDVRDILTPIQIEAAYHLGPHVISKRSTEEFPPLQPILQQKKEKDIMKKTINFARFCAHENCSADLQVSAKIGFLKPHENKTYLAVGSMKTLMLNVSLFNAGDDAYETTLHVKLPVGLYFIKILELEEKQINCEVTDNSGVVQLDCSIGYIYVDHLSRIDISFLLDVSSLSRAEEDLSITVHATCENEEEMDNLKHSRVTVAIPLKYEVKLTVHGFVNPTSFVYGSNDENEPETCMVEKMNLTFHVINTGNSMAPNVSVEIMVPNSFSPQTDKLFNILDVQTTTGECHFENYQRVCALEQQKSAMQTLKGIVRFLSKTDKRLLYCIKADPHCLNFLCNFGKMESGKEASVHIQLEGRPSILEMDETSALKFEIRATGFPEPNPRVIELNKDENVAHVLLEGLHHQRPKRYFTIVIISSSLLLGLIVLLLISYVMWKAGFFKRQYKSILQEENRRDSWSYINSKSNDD
Sequence of α4β7 (P26010 20-798): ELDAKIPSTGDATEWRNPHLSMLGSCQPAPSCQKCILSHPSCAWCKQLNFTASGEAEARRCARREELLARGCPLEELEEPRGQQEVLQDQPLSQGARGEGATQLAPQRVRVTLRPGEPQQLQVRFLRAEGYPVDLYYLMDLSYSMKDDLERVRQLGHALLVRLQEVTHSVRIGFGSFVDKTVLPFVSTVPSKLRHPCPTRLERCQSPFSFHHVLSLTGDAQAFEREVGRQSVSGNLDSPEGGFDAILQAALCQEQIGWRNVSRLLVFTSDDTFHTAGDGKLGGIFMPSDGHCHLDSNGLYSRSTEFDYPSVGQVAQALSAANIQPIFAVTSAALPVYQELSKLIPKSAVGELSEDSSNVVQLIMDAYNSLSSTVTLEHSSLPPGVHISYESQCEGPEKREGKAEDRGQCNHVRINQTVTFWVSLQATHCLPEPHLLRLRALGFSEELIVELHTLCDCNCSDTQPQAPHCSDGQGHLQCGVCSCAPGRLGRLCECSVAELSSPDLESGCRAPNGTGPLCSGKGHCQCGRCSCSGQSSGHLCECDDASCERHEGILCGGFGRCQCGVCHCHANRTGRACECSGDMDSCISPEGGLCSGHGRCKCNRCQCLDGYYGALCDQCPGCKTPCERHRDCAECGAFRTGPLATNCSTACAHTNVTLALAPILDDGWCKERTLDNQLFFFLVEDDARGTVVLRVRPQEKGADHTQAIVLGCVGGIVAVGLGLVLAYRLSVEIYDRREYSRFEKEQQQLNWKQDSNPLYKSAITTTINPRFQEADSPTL

In the case of `CC(=O)N[C@@H]1C(=O)N(C)[C@@H](CCCNC(=N)N)C(=O)N[C@@H](CO)C(=O)N[C@@H](CC(=O)O)C(=O)N[C@@H]([C@@H](C)O)C(=O)N[C@@H](CC(C)C)C(=O)N[C@H](C(=O)N[C@@H](Cc2cccc3ccccc23)C(=O)N[C@@H](CCC(=O)O)C(=O)N(C)[C@H](CCCCN)C(N)=O)C(C)(C)SSC1(C)C` [compound 18] (Ac-[Pen][NMeR]SDTL[Pen][1Nal]E[dNMeK]-NH2; disulfide 1-7), the IC50 on α4β1 was 500 to 1000 nM; at rh integrin α4β7 it was 10 to 25 nM.
With `CC(=O)N[C@@H]1C(=O)N(C)[C@@H](CCCNC(=N)N)C(=O)N[C@@H](CO)C(=O)N[C@@H](CC(=O)O)C(=O)N[C@@H]([C@@H](C)O)C(=O)N[C@@H](CC(C)C)C(=O)N[C@H](C(=O)N[C@@H](Cc2ccc(O)cc2)C(=O)N[C@@H](CCC(=O)O)C(=O)N[C@H](CCCCNC(=O)COCC(=O)NCCCC[C@@H](NC(=O)[C@H](CCC(=O)O)NC(=O)[C@H](Cc2ccc(O)cc2)NC(=O)[C@H]2NC(=O)[C@H](CC(C)C)NC(=O)[C@H]([C@@H](C)O)NC(=O)[C@H](CC(=O)O)NC(=O)[C@H](CO)NC(=O)[C@H](CCCNC(=N)N)N(C)C(=O)[C@@H](NC(C)=O)C(C)(C)SSC2(C)C)C(N)=O)C(N)=O)C(C)(C)SSC1(C)C` [compound 22] (I: Ac-[Pen][NMeR]SDTL[Pen]YE[dK]-NH2 / II: Ac-[Pen][NMeR]SDTL[Pen]YE[dK]-NH2; disulfide I:1-I:7, II:1-II:7; linker I:10-II:10 via Diglycolyl), the half-life at 22 μM in data set [1] is less than 20 min. Moreover, the IC50 was 100 to 500 nM at α4β1, less than 10 nM at α4β7 and less than 10 nM at rh integrin α4β7.
Regarding `CC(=O)N[C@@H]1C(=O)N(C)[C@@H](CCCNC(=N)N)C(=O)N[C@@H](CO)C(=O)N[C@@H](CC(=O)O)C(=O)N[C@@H]([C@@H](C)O)C(=O)N[C@@H](CC(C)C)C(=O)N[C@H](C(=O)N[C@@H](Cc2cccc3ccccc23)C(=O)N[C@@H](CCC(=O)O)C(=O)N[C@H](CCCCNC(=O)COCC(=O)NCCCC[C@@H](NC(=O)[C@H](CCC(=O)O)NC(=O)[C@H](Cc2cccc3ccccc23)NC(=O)[C@H]2NC(=O)[C@H](CC(C)C)NC(=O)[C@H]([C@@H](C)O)NC(=O)[C@H](CC(=O)O)NC(=O)[C@H](CO)NC(=O)[C@H](CCCNC(=N)N)N(C)C(=O)[C@@H](NC(C)=O)C(C)(C)SSC2(C)C)C(N)=O)C(N)=O)C(C)(C)SSC1(C)C` [compound 24] (I: Ac-[Pen][NMeR]SDTL[Pen][1Nal]E[dK]-NH2 / II: Ac-[Pen][NMeR]SDTL[Pen][1Nal]E[dK]-NH2; disulfide I:1-I:7, II:1-II:7; linker I:10-II:10 via Diglycolyl), the half-life at 22 μM in data set [1] is 56 min. The half-inhibitory concentration (IC50) was 100 to 500 nM on α4β1, less than 10 nM on α4β7 and less than 10 nM on rh integrin α4β7.
Consider `CC(=O)N[C@@H]1C(=O)N(C)[C@@H](CCCNC(=N)N)C(=O)N[C@@H](CO)C(=O)N[C@@H](CC(=O)O)C(=O)N[C@@H]([C@@H](C)O)C(=O)N[C@@H](CC(C)C)C(=O)N[C@H](C(=O)N[C@@H](Cc2cccc3ccccc23)C(=O)N[C@H](CCC(=O)O)C(=O)N[C@H](CCCCNC(=O)COCC(=O)NCCCC[C@@H](NC(=O)[C@@H](CCC(=O)O)NC(=O)[C@H](Cc2cccc3ccccc23)NC(=O)[C@H]2NC(=O)[C@H](CC(C)C)NC(=O)[C@H]([C@@H](C)O)NC(=O)[C@H](CC(=O)O)NC(=O)[C@H](CO)NC(=O)[C@H](CCCNC(=N)N)N(C)C(=O)[C@@H](NC(C)=O)C(C)(C)SSC2(C)C)C(N)=O)C(N)=O)C(C)(C)SSC1(C)C` [compound 32] (I: Ac-[Pen][NMeR]SDTL[Pen][1Nal][dE][dK]-NH2 / II: Ac-[Pen][NMeR]SDTL[Pen][1Nal][dE][dK]-NH2; disulfide I:1-I:7, II:1-II:7; linker I:10-II:10 via Diglycolyl), for which the half-life at 22 μM in data set [1] is more than 180 min. Besides, the IC50 was 100 to 500 nM at α4β1, 10 to 25 nM on α4β7 and less than 10 nM at rh integrin α4β7.
For `CC(=O)N[C@@H]1C(=O)N(C)[C@@H](CCCNC(=N)N)C(=O)N[C@@H](CO)C(=O)N[C@@H](CC(=O)O)C(=O)N[C@@H]([C@@H](C)O)C(=O)N[C@@H](CC(C)C)C(=O)N[C@H](C(=O)N[C@@H](Cc2ccc(-c3ccccc3)cc2)C(=O)N[C@@H](CCC(=O)O)C(=O)N[C@H](CCCCNC(=O)COCC(=O)NCCCC[C@@H](NC(=O)[C@H](CCC(=O)O)NC(=O)[C@H](Cc2ccc(-c3ccccc3)cc2)NC(=O)[C@H]2NC(=O)[C@H](CC(C)C)NC(=O)[C@H]([C@@H](C)O)NC(=O)[C@H](CC(=O)O)NC(=O)[C@H](CO)NC(=O)[C@H](CCCNC(=N)N)N(C)C(=O)[C@@H](NC(C)=O)C(C)(C)SSC2(C)C)C(N)=O)C(N)=O)C(C)(C)SSC1(C)C` [compound 134] (I: Ac-[Pen][NMeR]SDTL[Pen][Bip]E[dK]-NH2 / II: Ac-[Pen][NMeR]SDTL[Pen][Bip]E[dK]-NH2; disulfide I:1-I:7, II:1-II:7; linker I:10-II:10 via Diglycolyl), the IC50 at α4β1 was 100 to 500 nM; at α4β7, less than 10 nM; on rh integrin α4β7, less than 10 nM.
As to `CC(=O)N[C@@H]1C(=O)N(C)[C@@H](CCCNC(=N)N)C(=O)N[C@@H](CO)C(=O)N[C@@H](CC(=O)O)C(=O)N[C@@H]([C@@H](C)O)C(=O)N[C@@H](CC(C)C)C(=O)N[C@H](C(=O)N[C@@H](Cc2ccc3ccccc3c2)C(=O)N[C@@H](CCC(=O)O)CC(=O)N[C@H](CCCCNC(=O)COCC(=O)NCCCC[C@@H](NC(=O)C[C@H](CCC(=O)O)NC(=O)[C@H](Cc2ccc3ccccc3c2)NC(=O)[C@H]2NC(=O)[C@H](CC(C)C)NC(=O)[C@H]([C@@H](C)O)NC(=O)[C@H](CC(=O)O)NC(=O)[C@H](CO)NC(=O)[C@H](CCCNC(=N)N)N(C)C(=O)[C@@H](NC(C)=O)C(C)(C)SSC2(C)C)C(N)=O)C(N)=O)C(C)(C)SSC1(C)C` [compound 137] (I: Ac-[Pen][NMeR]SDTL[Pen][2Nal][β3hE][dK]-NH2 / II: Ac-[Pen][NMeR]SDTL[Pen][2Nal][β3hE][dK]-NH2; disulfide I:1-I:7, II:1-II:7; linker I:10-II:10 via Diglycolyl), the IC50 was 1000 to 10000 nM on α4β1, less than 10 nM on α4β7 and less than 10 nM at rh integrin α4β7.
As for `CC(=O)N[C@@H]1C(=O)N(C)[C@@H](CCCNC(=N)N)C(=O)N[C@@H](CO)C(=O)N[C@@H](CC(=O)O)C(=O)N[C@@H]([C@@H](C)O)C(=O)N[C@@H](CC(C)C)C(=O)N[C@H](C(=O)N[C@@H](Cc2c[nH]c3ccccc23)C(=O)N[C@@H](CCC(=O)O)CC(=O)N(C)[C@@H](CCCCNC(=O)COCC(=O)NCCCC[C@@H](C(N)=O)N(C)C(=O)C[C@H](CCC(=O)O)NC(=O)[C@H](Cc2c[nH]c3ccccc23)NC(=O)[C@H]2NC(=O)[C@H](CC(C)C)NC(=O)[C@H]([C@@H](C)O)NC(=O)[C@H](CC(=O)O)NC(=O)[C@H](CO)NC(=O)[C@H](CCCNC(=N)N)N(C)C(=O)[C@@H](NC(C)=O)C(C)(C)SSC2(C)C)C(N)=O)C(C)(C)SSC1(C)C` [compound 141] (I: Ac-[Pen][NMeR]SDTL[Pen]W[β3hE][NMeK]-NH2 / II: Ac-[Pen][NMeR]SDTL[Pen]W[β3hE][NMeK]-NH2; disulfide I:1-I:7, II:1-II:7; linker I:10-II:10 via Diglycolyl), the IC50 at α4β1 was 500 to 1000 nM; on α4β7, less than 10 nM; on rh integrin α4β7 it was less than 10 nM.
